# In PubChem BioAssay (NCI):
#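 Values below derive from 48-hour exposures of cells grown in 96-well plates, with endpoints linearly interpolated between the two concentrations bracketing the appropriate inhibition level. GI50 is the concentration that inhibits growth by half. The concentration for full growth arrest is given as TGI.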
# Legend:
# Assay in all cases: inhibition of tumour cell growth, NCI panel, 48 h
# A549 NSCLC = system: A549 NSCLC
# MDA-MB-435 = system: MDA-MB-435
# HCT-116 colon = system: HCT-116 colon
# HOP-62 NSCLC = system: HOP-62 NSCLC
# SF-268 CNS = system: SF-268 CNS
# SN12C renal = system: SN12C renal
# NCI/ADR-RES ovarian = system: NCI/ADR-RES ovarian
# MCF7 breast = system: MCF7 breast
# IGROV1 ovarian = system: IGROV1 ovarian
# BT-549 breast = system: BT-549 breast
# NCI-H23 lung = system: NCI-H23 lung
# EKVX NSCLC = system: EKVX NSCLC
# U251 CNS = system: U251 CNS
# A498 renal = system: A498 renal
# M14 melanoma = system: M14 melanoma
# T-47D breast = system: T-47D breast
# HS 578T breast = system: HS 578T breast
# SK-MEL-2 melanoma = system: SK-MEL-2 melanoma
# TK-10 renal = system: TK-10 renal
# COLO 205 colon = system: COLO 205 colon
# SNB-75 CNS = system: SNB-75 CNS
# MALME-3M melanoma = system: MALME-3M melanoma
# UO-31 renal = system: UO-31 renal
# HOP-92 NSCLC = system: HOP-92 NSCLC
# SK-OV-3 ovarian = system: SK-OV-3 ovarian
# CCRF-CEM leukemia = system: CCRF-CEM leukemia
# NCI-H226 lung = system: NCI-H226 lung
# SW-620 colon = system: SW-620 colon
# CAKI-1 renal = system: CAKI-1 renal
# MOLT-4 leukemia = system: MOLT-4 leukemia
# HCT-15 colon = system: HCT-15 colon
# RXF 393 renal = system: RXF 393 renal
# K-562 leukemia = system: K-562 leukemia
# OVCAR-3 ovarian = system: OVCAR-3 ovarian
# SK-MEL-28 melanoma = system: SK-MEL-28 melanoma
# NCI-H522 lung = system: NCI-H522 lung
# OVCAR-5 ovarian = system: OVCAR-5 ovarian
# HCC-2998 colon = system: HCC-2998 colon
# SNB-19 CNS = system: SNB-19 CNS
# SK-MEL-5 melanoma = system: SK-MEL-5 melanoma
# LOX IMVI melanoma = system: LOX IMVI melanoma
# NCI-H460 lung = system: NCI-H460 lung
# SR leukemia = system: SR leukemia
# MDA-MB-231 breast = system: MDA-MB-231 breast
# DU-145 prostate = system: DU-145 prostate
# OVCAR-4 ovarian = system: OVCAR-4 ovarian
# UACC-62 melanoma = system: UACC-62 melanoma
# SF-539 CNS = system: SF-539 CNS
# KM12 colon = system: KM12 colon
# PC-3 prostate = system: PC-3 prostate
# ACHN renal = system: ACHN renal
# OVCAR-8 ovarian = system: OVCAR-8 ovarian
# HL-60(TB) leukemia = system: HL-60(TB) leukemia
# SF-295 CNS = system: SF-295 CNS
# UACC-257 melanoma = system: UACC-257 melanoma
# HT29 colon = system: HT29 colon
# 786-0 renal = system: 786-0 renal
smiles,measurement,setting,value
CCN1CCN(CCNc2nccc(-c3c(-c4ccc(F)c(O)c4)nc4occn34)n2)S1(=O)=O,GI50,A549 NSCLC,4.58 µM
same,TGI,A549 NSCLC,> 100 µM
same,GI50,MDA-MB-435,3.03 µM
same,TGI,MDA-MB-435,> 100 µM
same,GI50,HCT-116 colon,3.76 µM
same,TGI,HCT-116 colon,> 100 µM
same,GI50,HOP-62 NSCLC,5.97 µM
same,TGI,HOP-62 NSCLC,> 100 µM
same,GI50,SF-268 CNS,4.84 µM
same,TGI,SF-268 CNS,> 100 µM
same,GI50,SN12C renal,4.41 µM
same,TGI,SN12C renal,> 100 µM
same,GI50,NCI/ADR-RES ovarian,3.01 µM
same,TGI,NCI/ADR-RES ovarian,> 100 µM
same,GI50,MCF7 breast,3.82 µM
same,TGI,MCF7 breast,> 100 µM
same,GI50,IGROV1 ovarian,4.06 µM
same,TGI,IGROV1 ovarian,> 100 µM
same,GI50,BT-549 breast,2.97 µM
same,TGI,BT-549 breast,> 100 µM
same,GI50,NCI-H23 lung,4.12 µM
same,TGI,NCI-H23 lung,> 100 µM
same,GI50,EKVX NSCLC,6.81 µM
same,TGI,EKVX NSCLC,> 100 µM
same,GI50,U251 CNS,13.3 µM
same,TGI,U251 CNS,> 100 µM
same,GI50,A498 renal,5.15 µM
same,TGI,A498 renal,> 100 µM
same,GI50,M14 melanoma,4.28 µM
same,TGI,M14 melanoma,> 100 µM
same,GI50,T-47D breast,2.13 µM
same,TGI,T-47D breast,24.6 µM
same,GI50,HS 578T breast,6.75 µM
same,TGI,HS 578T breast,> 100 µM
same,GI50,SK-MEL-2 melanoma,3.98 µM
same,TGI,SK-MEL-2 melanoma,> 100 µM
same,GI50,TK-10 renal,35.6 µM
same,TGI,TK-10 renal,> 100 µM
same,GI50,COLO 205 colon,4.6 µM
same,TGI,COLO 205 colon,> 100 µM
same,GI50,SNB-75 CNS,3.65 µM
same,TGI,SNB-75 CNS,> 100 µM
same,GI50,MALME-3M melanoma,3.8 µM
same,TGI,MALME-3M melanoma,> 100 µM
same,GI50,UO-31 renal,2.66 µM
same,TGI,UO-31 renal,> 100 µM
same,GI50,HOP-92 NSCLC,52.1 µM
same,TGI,HOP-92 NSCLC,> 100 µM
same,GI50,SK-OV-3 ovarian,12.9 µM
same,TGI,SK-OV-3 ovarian,> 100 µM
same,GI50,CCRF-CEM leukemia,2.2 µM
same,TGI,CCRF-CEM leukemia,> 100 µM
same,GI50,NCI-H226 lung,3.8 µM
same,TGI,NCI-H226 lung,> 100 µM
same,GI50,SW-620 colon,8.42 µM
same,TGI,SW-620 colon,> 100 µM
same,GI50,CAKI-1 renal,4.3 µM
same,TGI,CAKI-1 renal,> 100 µM
same,GI50,MOLT-4 leukemia,2.56 µM
same,TGI,MOLT-4 leukemia,> 100 µM
same,GI50,HCT-15 colon,3.93 µM
same,TGI,HCT-15 colon,> 100 µM
same,GI50,RXF 393 renal,2.51 µM
same,TGI,RXF 393 renal,> 100 µM
same,GI50,K-562 leukemia,3.67 µM
same,TGI,K-562 leukemia,> 100 µM
same,GI50,OVCAR-3 ovarian,4.44 µM
same,TGI,OVCAR-3 ovarian,> 100 µM
same,GI50,SK-MEL-28 melanoma,5.68 µM
same,TGI,SK-MEL-28 melanoma,> 100 µM
same,GI50,NCI-H522 lung,2.93 µM
same,TGI,NCI-H522 lung,> 100 µM
same,GI50,OVCAR-5 ovarian,> 100 µM
same,TGI,OVCAR-5 ovarian,> 100 µM
same,GI50,HCC-2998 colon,6.19 µM
same,TGI,HCC-2998 colon,> 100 µM
same,GI50,SNB-19 CNS,> 100 µM
same,TGI,SNB-19 CNS,> 100 µM
same,GI50,SK-MEL-5 melanoma,2.23 µM
same,TGI,SK-MEL-5 melanoma,5.89 µM
same,GI50,LOX IMVI melanoma,3.76 µM
same,TGI,LOX IMVI melanoma,> 100 µM
same,GI50,NCI-H460 lung,4.92 µM
same,TGI,NCI-H460 lung,> 100 µM
same,GI50,SR leukemia,7.46 µM
same,TGI,SR leukemia,> 100 µM
same,GI50,MDA-MB-231 breast,32.3 µM
same,TGI,MDA-MB-231 breast,> 100 µM
same,GI50,DU-145 prostate,3.75 µM
same,TGI,DU-145 prostate,> 100 µM
same,GI50,OVCAR-4 ovarian,4.59 µM
same,TGI,OVCAR-4 ovarian,> 100 µM
same,GI50,UACC-62 melanoma,1.5 µM
same,TGI,UACC-62 melanoma,6.56 µM
same,GI50,SF-539 CNS,> 100 µM
same,TGI,SF-539 CNS,> 100 µM
same,GI50,KM12 colon,3.72 µM
same,TGI,KM12 colon,> 100 µM
same,GI50,PC-3 prostate,2.12 µM
same,TGI,PC-3 prostate,> 100 µM
same,GI50,ACHN renal,3.44 µM
same,TGI,ACHN renal,> 100 µM
same,GI50,OVCAR-8 ovarian,3.63 µM
same,TGI,OVCAR-8 ovarian,> 100 µM
same,GI50,HL-60(TB) leukemia,4.16 µM
same,TGI,HL-60(TB) leukemia,> 100 µM
same,GI50,SF-295 CNS,5.27 µM
same,TGI,SF-295 CNS,> 100 µM
same,GI50,UACC-257 melanoma,5.15 µM
same,TGI,UACC-257 melanoma,> 100 µM
same,GI50,HT29 colon,4.2 µM
same,TGI,HT29 colon,> 100 µM
same,GI50,786-0 renal,9.44 µM
same,TGI,786-0 renal,> 100 µM
